# Source: the METLIN SMRT retention time set (Domingo-Almenara et al. 2019)
# Assay: gradient 5% acetonitrile 3 min, to 50% in 2 min, to 85% in 15 min, held 3 min, 100 µL/min
# Conditions: column: Zorbax Extend-C18 2.1 x 50 mm; eluents: water / acetonitrile, 0.1% formic acid
# Procedure, shortened: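 Mixtures of ~100 pure standards were chromatographed on a Zorbax Extend-C18 column (2.1 × 50 mm, 1.8 μm) at 100 μL/min using water and acetonitrile, each with 0.1% formic acid. Detection used a quadrupole time-of-flight mass spectrometer in positive and negative ionization mode, and data collection spanned 3 months. Retention time was obtained from adduct peaks picked computationally and each checked manually.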
row,Structure (SMILES),RP-LC retention time
1,Cc1ccc2nc(NC3=NCN(CCO)CN3)nc(C)c2c1,593 s
2,Cc1ccc(C(=O)N2CCN(c3nnc4ccccn34)CC2)cc1F,647 s
3,O=C(NCc1cccs1)C1CCCN(c2nc3ccsc3c(=O)n2-c2ccc(F)cc2)C1 (stereo unspecified),843 s
4,COc1ccc(C(=O)N2C[C@H](c3nc(-c4ccccc4)no3)[C@@H](C)C2)cc1F,991 s
5,Cc1c(-c2ccnc(N3CCCC3)n2)cnc2nc(-c3ccccc3)nn12,933 s
6,Cc1ccc(Cn2nc3c(S(=O)(=O)N4CCc5ccccc5C4)cccn3c2=O)cc1,941 s
7,Cc1cc(C)cc(NC(=O)C2CCCN(c3nccnc3Sc3ccccc3)C2)c1 (stereo unspecified),1200 s
8,CC(C)(C)c1cc(N2CCN(c3ccccn3)CC2)n2ncc(-c3ccccc3)c2n1,1040 s
9,C=CCNC(=O)C1CCN(Cc2noc(-c3ccc(F)cc3)n2)CC1,613 s
10,O=C(COc1ccccc1[N+](=O)[O-])Nc1nc(-c2ccccc2)cs1,1040 s
11,COC(=O)C1C(=O)C2=C(CC1C)NC(=O)CC2c1cccc(C)c1 (stereo unspecified),675 s
12,Nc1cc(C2CCN(S(=O)(=O)c3ccc(F)cc3F)CC2)no1,780 s
13,CCCN1C(=O)COc2ccc(-c3noc(Cc4cc(OC)cc(OC)c4)n3)cc21,1080 s
14,CCCCCNC(=O)c1ccc(Oc2nccnc2N2CCC(C)CC2)cc1,1220 s
15,O=C(CN1CCC2(CC1)NC(=O)c1ccccc1N2)Nc1ccc(Cl)cc1,637 s
16,CC1=C(c2ccc(F)cc2)S(=O)(=O)N=C1N1CCC(C(=O)NC(C)C)CC1,741 s
17,CCC(C)Oc1nc2c(c(=O)n(C)c(=O)n2C)n1C (stereo unspecified),865 s
18,O=C(NC1CCc2nn(CC3CC3)c(=O)n2CC1)c1cc(C2CC2)[nH]n1 (stereo unspecified),627 s
19,COc1cc(OC)c(NC(=O)Cn2c(=O)n(-c3ccc(C)cc3)c(=O)c3c2cc(C)n3C)cc1Cl,904 s
20,Cc1nn2c(CNS(=O)(=O)c3ccc(F)c(C)c3)c(-c3ccccc3)nc2s1,898 s
21,Cc1nn(C)cc1S(=O)(=O)Nc1ccc2c(c1)OCCO2,641 s
22,CCC(C)(C)NC(=O)C1CCCN1S(=O)(=O)c1cc2c(cc1C)NC(=O)CO2 (stereo unspecified),745 s

row,Structure (SMILES),RP-LC retention time
1,CCCS(=O)(=O)c1nc2ccc(NS(=O)(=O)c3ccc(C)cc3C)cc2s1,999 s
2,Cc1nc(-c2ccccc2)cc2nn(CC(=O)N(C)c3ccccc3)c(=O)n12,917 s
3,COc1ccc(-c2noc(CSc3nccn3-c3ccc(C)cc3)n2)cc1OC,856 s
4,Cc1ccccc1CNC(=O)Cn1c(=O)c2nnc(C)n2c2ncccc21,672 s
5,CCn1c(=O)sc2cc(S(=O)(=O)N3CCC(C(=O)N4CCCCC4C)CC3)ccc21 (stereo unspecified),896 s
6,CCc1noc(NC(C)=O)c1-c1ccc(C)c(S(=O)(=O)Nc2ccc(Br)cc2F)c1,903 s
7,Cc1cccc(CNC(=O)CN2CCN(Cc3cccc(Cl)c3)C2=O)c1,847 s
8,O=C1Nc2ccccc2C1(c1ccc(O)cc1)c1ccc(O)cc1,755 s
9,O=C(CSc1ccc(F)cc1)OCc1cc(-c2ccc3c(c2)OCO3)on1,1020 s
10,COc1ccc(Cc2nc3ccccc3n2CC(N)=O)cc1OC,566 s
11,Cc1nc(N)nc(Nc2ccc(C#N)cc2)c1Br,658 s
12,O=C(NCCc1c[nH]c2ccc(Cl)cc12)C1CCCN(c2nc3cccnc3s2)C1 (stereo unspecified),858 s
13,COc1ccc(N(CCC#N)S(=O)(=O)c2cccc3nsnc23)cc1,789 s
14,Cc1nc(N2CCN(CCO)CC2)nc2c1C(=O)CC(C)(C)C2,604 s
15,COc1cc(-c2nc3ccc(C)cn3c2Nc2ccc(Cl)cc2)ccc1O,698 s
16,COc1ccc(-c2cc3c4nnc(SCC(=O)NCc5ccc(SC)cc5)n4ccn3n2)cc1,832 s
17,COc1cccc(NC(=O)Nc2ccc(Cl)c(N3CCCS3(=O)=O)c2)c1OC,780 s
18,O=C(NC1CCCc2ccccc21)C1CCN(Cc2noc(-c3ccc(F)cc3)n2)CC1 (stereo unspecified),713 s
19,Cc1ccc(Cl)cc1NS(=O)(=O)c1cc(-c2nc(C(C)(C)C)cs2)cs1,1330 s
20,CC1(CNC(=O)c2ccccc2Br)CCOCC1,698 s
21,CCC(C)NC(=O)c1nc(CCS(=O)(=O)c2ccccc2)no1 (stereo unspecified),771 s
22,Cc1ccc2cc(CN3CCC4(CC3)CC(O)CCO4)c(=O)[nH]c2c1 (stereo unspecified),562 s

row,Structure (SMILES),RP-LC retention time
1,CC1CCN(C(=O)C2=NN(Cc3nc(C4CC4)no3)c3ccccc3S2(=O)=O)CC1,904 s
2,CCOC(=O)Cc1csc(NC(=O)CNC(=O)c2c[nH]c3ccccc23)n1,670 s
3,CCN(CC)c1ccc(NC(=O)C2CCCN(C(=O)c3cc(C)cc(C)c3)C2)c(C)c1 (stereo unspecified),659 s
4,CCC1Oc2ccc(S(=O)(=O)N3CCC(C(=O)Nc4cc(C)cc(C)c4)CC3)cc2NC1=O (stereo unspecified),837 s
5,CCSc1nc2ccc(NS(=O)(=O)Cc3cc(F)cc(F)c3)cc2s1,1020 s
6,COCCCNC(=O)c1nc2cccnc2n(CC(C)C)c1=O,728 s
7,Cc1cc(C)c(NC(=O)Cn2c(=O)n(-c3ccc(F)cc3)c(=O)c3c2cc(C)n3C)c(C)c1,921 s
8,COc1ccc(-c2cc(C(F)F)nn2-c2ccc(S(N)(=O)=O)cc2)cc1F,997 s
9,CCn1nccc1C(=O)NCCn1c(=O)n(Cc2ccc(C)cc2)c2cccnc21,773 s
10,O=C(CC1CCN(C(=O)c2ccc3oc(-c4ccccc4)nc3c2)CC1)NCc1ccco1,793 s
11,CCc1ccc(Oc2cc(N3CCC(C(=O)NC4CCCCCC4)CC3)ncn2)cc1,1110 s
12,COc1ccc(C(=O)Nc2ccc(N3CCN(C4CCCC4)C3=O)nc2)c(OC)c1,829 s
13,COc1ccc(NC(=O)N2[C@H]3CC[C@@H]2c2cnc(-c4ccccc4)nc2C3)c(OC)c1,894 s
14,CCc1ccc(NC(=O)N2CCc3nc(C)ncc3C2)cc1,695 s
15,COc1ccc(N2N=NC3C(=O)N(c4ccc(F)cc4)C(=O)C32)cc1OC (stereo unspecified),1140 s
16,Cc1cc(=O)n(CC(=O)Nc2cc(F)cc(F)c2)c(N2CCCCC2)n1,733 s
17,Cc1ccc(F)c(NC(=O)c2cn3c(n2)CSCC3)c1,811 s
18,CCc1nc2cc(N3CCC(C(=O)NCc4ccccc4)CC3)cnc2nc1CC,820 s
19,CCN1C(=O)COc2ccc(-c3noc(-c4ccc(Br)cc4)n3)cc21,1240 s
20,COc1ccc(OC)c(NC(=O)CN2C(=O)CCc3cc(Br)ccc32)c1,962 s
21,O=C(NCC(=O)N1CCCc2ccccc21)c1ccc(Cl)cc1,835 s
22,COc1cccc(-c2noc(C3CCCN3C(=O)Nc3cccc(C)c3C)n2)c1 (stereo unspecified),925 s
